Measurements as given in patent US11541107B2, “Peptides and T cells for use in immunotherapeutic treatment of various cancers” (Immatics Biotechnologies GmbH, priority 2015, dated 2023).

Each substance was assayed on HLA-A*24 (assay: MHC binding assay, UV-ligand exchange with beta2m ELISA, HLA-A*24). Conditions: binding to HLA-A*24 ranged by peptide exchange yield (UV-ligand exchange, beta2m ELISA).
Set-up: species or system human
Description: Candidate peptides for T cell based therapies according to the present invention were further tested for their MHC binding capacity (affinity). The individual peptide-MHC complexes were produced by UV-ligand exchange, where a UV-sensitive peptide is cleaved upon UV-irradiation, and exchanged with the peptide of interest as analyzed. Only peptide candidates that can effectively bind and stabilize the peptide-receptive MHC molecules prevent dissociation of the MHC complexes. To determine the yield of the exchange reaction, an ELISA was performed based on the detection of the light chain (ß2 m) of stabilized MHC complexes. The assay was performed as generally described in Rodenko et al. (Rodenko et al., 2006).
96 well MAXISorp plates (NUNC) were coated over night with 2 ug/ml streptavidin in PBS at room temperature, washed 4× and blocked for 1 h at 37° C. in 2% BSA containing blocking buffer. […] Peptide-MHC monomers of the UV-exchange reaction were diluted 100 fold in blocking buffer. Samples were incubated for 1 h at 37° C., washed four times, incubated with 2 ug/ml HRP conjugated anti-β2 m for 1h at 37° C., washed again and detected with TMB solution that is stopped with […]. Absorption was measured at 450 nm. Candidate peptides that show a high exchange yield (preferably higher than 50%, most preferred higher than 75%) are generally preferred for a generation and production of antibodies or fragments thereof, and/or T cell receptors or fragments thereof, as they show sufficient avidity to the MHC molecules and prevent dissociation of the MHC complexes.

Peptide exchange | Substance
+++ (50%-75% = +++) | 205 (VYPVVLNQI; listed as Homo sapiens) [compound 205]
+++ (50%-75% = +++) | 207 (LYSDAFKFIVF; listed as Homo sapiens) [compound 207]
++++ (>=75% = ++++) | 208 (TYLEKIDGF; listed as Homo sapiens) [compound 208]
++ (20%-49% = ++) | 213 (SYAPPSEDLFL; listed as Homo sapiens) [compound 213]
+++ (50%-75% = +++) | 214 (KYLMELTLI; listed as Homo sapiens) [compound 214]
++++ (>=75% = ++++) | 217 (IYISNSIYF; listed as Homo sapiens) [compound 217]
++++ (>=75% = ++++) | 221 (KYIGNLDLL; listed as Homo sapiens) [compound 221]
+++ (50%-75% = +++) | 224 (PYFFANQEF; listed as Homo sapiens) [compound 224]
++ (20%-49% = ++) | 226 (MYLKLVQLF; listed as Homo sapiens) [compound 226]
+++ (50%-75% = +++) | 227 (IYRFITERF; listed as Homo sapiens) [compound 227]
+++ (50%-75% = +++) | 230 (TYGMVMVTF; listed as Homo sapiens) [compound 230]
+++ (50%-75% = +++) | 233 (QYLTAAALHNL; listed as Homo sapiens) [compound 233]
+++ (50%-75% = +++) | 242 (VYGEPRELL; listed as Homo sapiens) [compound 242]
+++ (50%-75% = +++) | 243 (SYLELANTL; listed as Homo sapiens) [compound 243]
+++ (50%-75% = +++) | 244 (VHFEDTGKTLLF; listed as Homo sapiens) [compound 244]
++ (20%-49% = ++) | 246 (KYLSVQLTL; listed as Homo sapiens) [compound 246]
++++ (>=75% = ++++) | 249 (RYHPTTCTI; listed as Homo sapiens) [compound 249]
++ (20%-49% = ++) | 250 (KYPDIASPTF; listed as Homo sapiens) [compound 250]

Peptide exchange | Substance
+++ (50%-75% = +++) | 251 (VYTKALSSL; listed as Homo sapiens) [compound 251]
+++ (50%-75% = +++) | 254 (KYLESSATF; listed as Homo sapiens) [compound 254]
+++ (50%-75% = +++) | 255 (VYQKIILKF; listed as Homo sapiens) [compound 255]
+++ (50%-75% = +++) | 256 (VFGKSAYLF; listed as Homo sapiens) [compound 256]
+++ (50%-75% = +++) | 257 (IFIDNSTQPLHF; listed as Homo sapiens) [compound 257]
+++ (50%-75% = +++) | 258 (AYAQLGYLL; listed as Homo sapiens) [compound 258]
++ (20%-49% = ++) | 259 (YFIKSPPSQLF; listed as Homo sapiens) [compound 259]
++++ (>=75% = ++++) | 260 (VYMNVMTRL; listed as Homo sapiens) [compound 260]
+++ (50%-75% = +++) | 263 (RYILENHDF; listed as Homo sapiens) [compound 263]
++++ (>=75% = ++++) | 264 (LYTETRLQF; listed as Homo sapiens) [compound 264]
++++ (>=75% = ++++) | 265 (SYLNEAFSF; listed as Homo sapiens) [compound 265]
++ (20%-49% = ++) | 267 (SFLNIEKTEILF; listed as Homo sapiens) [compound 267]
+++ (50%-75% = +++) | 270 (YYSQESKVLYL; listed as Homo sapiens) [compound 270]
++++ (>=75% = ++++) | 271 (RFLMKSYSF; listed as Homo sapiens) [compound 271]
++++ (>=75% = ++++) | 272 (RYVFPLPYL; listed as Homo sapiens) [compound 272]
++++ (>=75% = ++++) | 275 (KYGTLDVTF; listed as Homo sapiens) [compound 275]
+++ (50%-75% = +++) | 277 (FYTFPFQQL; listed as Homo sapiens) [compound 277]

Continued, substance first:

Substance | Peptide exchange
206 (NYLDVATFL; listed as Homo sapiens) [compound 206] | ++++ (>=75% = ++++)
209 (AFIETPIPLF; listed as Homo sapiens) [compound 209] | ++++ (>=75% = ++++)
210 (IYAGVGEFSF; listed as Homo sapiens) [compound 210] | ++++ (>=75% = ++++)
211 (VFKSEGAYF; listed as Homo sapiens) [compound 211] | ++++ (>=75% = ++++)
212 (SYAPPSEDLF; listed as Homo sapiens) [compound 212] | ++ (20%-49% = ++)
215 (SYVASFFLL; listed as Homo sapiens) [compound 215] | ++ (20%-49% = ++)
216 (FYVNVKEQF; listed as Homo sapiens) [compound 216] | +++ (50%-75% = +++)
218 (LYSELNKWSF; listed as Homo sapiens) [compound 218] | +++ (50%-75% = +++)
219 (SYLKAVFNL; listed as Homo sapiens) [compound 219] | +++ (50%-75% = +++)
220 (SYSEIKDFL; listed as Homo sapiens) [compound 220] | ++++ (>=75% = ++++)
223 (TFITQSPLL; listed as Homo sapiens) [compound 223] | ++++ (>=75% = ++++)
225 (TYTNTLERL; listed as Homo sapiens) [compound 225] | +++ (50%-75% = +++)
228 (IYQYVADNF; listed as Homo sapiens) [compound 228] | +++ (50%-75% = +++)
229 (IYQFVADSF; listed as Homo sapiens) [compound 229] | +++ (50%-75% = +++)
231 (AFADVSVKF; listed as Homo sapiens) [compound 231] | ++++ (>=75% = ++++)
232 (YYLSDSPLL; listed as Homo sapiens) [compound 232] | +++ (50%-75% = +++)
234 (SYLPAIWLL; listed as Homo sapiens) [compound 234] | +++ (50%-75% = +++)
235 (VYKDSIYYI; listed as Homo sapiens) [compound 235] | +++ (50%-75% = +++)
236 (VYLPKIPSW; listed as Homo sapiens) [compound 236] | +++ (50%-75% = +++)

Substance | Peptide exchange
237 (KYVGQLAVL; listed as Homo sapiens) [compound 237] | +++ (50%-75% = +++)
239 (VYAIFRILL; listed as Homo sapiens) [compound 239] | +++ (50%-75% = +++)
240 (YYFFVQEKI; listed as Homo sapiens) [compound 240] | +++ (50%-75% = +++)
241 (SYVKVLHHL; listed as Homo sapiens) [compound 241] | +++ (50%-75% = +++)
245 (LYPQLFVVL; listed as Homo sapiens) [compound 245] | +++ (50%-75% = +++)
247 (SFTKTSPNF; listed as Homo sapiens) [compound 247] | +++ (50%-75% = +++)
248 (AFPTFSVQL; listed as Homo sapiens) [compound 248] | ++++ (>=75% = ++++)
252 (AFGQETNVPLNNF; listed as Homo sapiens) [compound 252] | ++++ (>=75% = ++++)
253 (IYGFFNENF; listed as Homo sapiens) [compound 253] | +++ (50%-75% = +++)
261 (GYIKLINFI; listed as Homo sapiens) [compound 261] | ++++ (>=75% = ++++)
262 (VYSSQFETI; listed as Homo sapiens) [compound 262] | ++++ (>=75% = ++++)
266 (KYTDWTEFL; listed as Homo sapiens) [compound 266] | +++ (50%-75% = +++)
268 (IFITKALQI; listed as Homo sapiens) [compound 268] | ++ (20%-49% = ++)
269 (QYPYLQAFF; listed as Homo sapiens) [compound 269] | +++ (50%-75% = +++)
273 (IYGEKLQFIF; listed as Homo sapiens) [compound 273] | +++ (50%-75% = +++)
274 (KQLDIANYELF; listed as Homo sapiens) [compound 274] | ++++ (>=75% = ++++)
276 (QYLDVLHAL; listed as Homo sapiens) [compound 276] | ++++ (>=75% = ++++)
279 (VWLPASVLF; listed as Homo sapiens) [compound 279] | +++ (50%-75% = +++)
280 (TYNPNLQDKL; listed as Homo sapiens) [compound 280] | ++++ (>=75% = ++++)
